# Data as given in patent US11014917B2, “5-fluoro-c-(aryl or heterocyclyl)-glycoside derivatives useful as dual SGLT1 / SGLT2 modulators” (Janssen Pharmaceutica NV, priority 2017, dated 2021).
# What was measured:
# [1] = target: T1, human SGLT2 (Homo sapiens, UniProt P31639); assay: SGLT2 assay: Na-dependent 14C-AMG uptake in CHO-K1 cells stably expressing human SGLT2; format: cell-based; settings: for SGLT2 %-inhibition / inhibition at 0.3 µM: @ 0.3 μM; for IC50: average if tested more than once
# T1 construct: expressed in transfected cells
# T1 sequence (P31639 1-672): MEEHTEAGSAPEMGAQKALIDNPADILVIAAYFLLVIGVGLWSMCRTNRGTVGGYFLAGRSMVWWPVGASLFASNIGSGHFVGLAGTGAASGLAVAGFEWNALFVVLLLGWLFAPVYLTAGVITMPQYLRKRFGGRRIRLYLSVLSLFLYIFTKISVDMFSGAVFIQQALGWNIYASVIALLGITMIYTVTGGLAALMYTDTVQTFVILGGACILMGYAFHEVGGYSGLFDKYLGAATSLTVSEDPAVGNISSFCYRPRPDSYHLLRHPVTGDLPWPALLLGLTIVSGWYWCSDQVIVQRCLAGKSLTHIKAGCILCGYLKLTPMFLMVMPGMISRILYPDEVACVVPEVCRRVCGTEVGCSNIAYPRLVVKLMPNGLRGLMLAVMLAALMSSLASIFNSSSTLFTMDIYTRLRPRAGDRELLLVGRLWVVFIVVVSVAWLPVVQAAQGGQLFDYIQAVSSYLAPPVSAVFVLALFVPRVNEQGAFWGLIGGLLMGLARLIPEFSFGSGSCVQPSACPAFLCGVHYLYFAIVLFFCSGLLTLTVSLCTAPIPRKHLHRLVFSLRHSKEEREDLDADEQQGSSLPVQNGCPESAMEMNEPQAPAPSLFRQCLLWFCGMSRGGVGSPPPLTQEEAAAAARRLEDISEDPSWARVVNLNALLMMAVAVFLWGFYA
# Summary of the method: (§1)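 Stable CHO-K1 lines were pretreated 24 h with 10 mM Na-butyrate, then compound (0.001–10 μM) for 10 min in Na+ buffer (137 mM NaCl, pH 7.4). Uptake of 14C-AMG (500 μM final, 0.07 μCi/well) over 2 h at 37° C measured by scintillation; %-inhibition or IC50.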
# [2] = target: T2, human SGLT1 (Homo sapiens, UniProt P13866); assay: SGLT1 assay: Na-dependent 14C-AMG uptake in CHO-K1 cells stably expressing human SGLT1; format: cell-based; settings: for SGLT1 %-inhibition / inhibition at 0.3 µM: @ 0.3 μM; for IC50: average if tested more than once
# T2 construct: expressed in transfected cells
# T2 sequence (P13866 1-664): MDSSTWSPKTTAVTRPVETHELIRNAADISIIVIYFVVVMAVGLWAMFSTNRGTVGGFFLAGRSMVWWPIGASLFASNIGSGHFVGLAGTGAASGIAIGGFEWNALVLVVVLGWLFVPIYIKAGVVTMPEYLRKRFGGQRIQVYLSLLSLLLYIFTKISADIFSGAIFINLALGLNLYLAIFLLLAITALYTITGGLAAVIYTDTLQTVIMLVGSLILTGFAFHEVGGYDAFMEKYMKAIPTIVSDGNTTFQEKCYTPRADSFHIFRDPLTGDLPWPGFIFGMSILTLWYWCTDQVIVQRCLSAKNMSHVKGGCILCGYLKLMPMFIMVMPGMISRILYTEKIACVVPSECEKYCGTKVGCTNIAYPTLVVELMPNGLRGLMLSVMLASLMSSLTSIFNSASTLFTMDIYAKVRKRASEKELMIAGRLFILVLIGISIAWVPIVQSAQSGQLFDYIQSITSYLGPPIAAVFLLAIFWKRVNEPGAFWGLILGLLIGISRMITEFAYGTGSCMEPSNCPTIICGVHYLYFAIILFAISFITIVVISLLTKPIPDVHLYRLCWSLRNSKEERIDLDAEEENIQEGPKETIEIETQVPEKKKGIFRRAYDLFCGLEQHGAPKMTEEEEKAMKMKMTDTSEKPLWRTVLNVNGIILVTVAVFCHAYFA
# Summary of the method: as §1
smiles,measurement,setting,value
COc1cc(Cl)c(Cc2cc3c(s2)CCN(C(=O)c2nccs2)C3)cc1[C@@H]1O[C@H](CO)[C@@H](F)[C@H](O)[C@H]1O [Compound 106],SGLT2 %-inhibition,[1],82.1% @ 0.3 μM
same,SGLT1 %-inhibition,[2],29.4% @ 0.3 μM
"Cc1ccc([C@@H]2O[C@H](CO)[C@@H](F)[C@H](O)[C@H]2O)cc1Cc1cc2c(s1)CCN(C(=O)c1nccs1)C2 [Compound 109, (2-(5-((2S,3R,4R,5S,6R)-5-fluoro-3,4-dihydroxy-6-(hydroxymethyl)-tetrahydro-2H-pyran-2-yl)-2-methylbenzyl)-6,7-dihydrothieno[3,2-c]pyridin-5(4H)-yl)(thiazol-2-yl)methanone]",inhibition at 0.3 µM,[1],72.7%
same,inhibition at 0.3 µM,[2],39.5%
"COc1c([C@@H]2O[C@H](CO)[C@@H](F)[C@H](O)[C@H]2O)cc(Cc2ccc3c(c2)NCCC3)c2c1CCO2 [Compound 105, (2S,3R,4R,5S,6R)-5-fluoro-6-(hydroxymethyl)-2-(4-methoxy-7-((1,2,3,4-tetrahydroquinolin-7-yl)methyl)-2,3-dihydrobenzofuran-5-yl)-tetrahydro-2H-pyran-3,4-diol]",IC50,[1],4 nM
same,IC50,[2],128 nM
Cc1cc(O)c([C@@H]2O[C@H](CO)[C@@H](F)[C@H](O)[C@H]2O)cc1Cc1cc2ccccc2s1 [Compound 4],IC50,[1],4 nM
same,IC50,[2],14 nM
N#CN1CCc2sc(Cc3cc([C@@H]4O[C@H](CO)[C@@H](F)[C@H](O)[C@H]4O)ccc3Cl)cc2C1 [Compound 121],SGLT2 %-inhibition,[1],79.8% @ 0.3 μM
same,SGLT1 %-inhibition,[2],20.5% @ 0.3 μM
OCCC1COc2c(Cc3ccc4c(c3)OCCO4)cc([C@@H]3O[C@H](CO)[C@@H](F)[C@H](O)[C@H]3O)cc21 (some centres unmarked) [Compound 93],SGLT2 %-inhibition,[1],42.3% @ 0.3 μM
same,SGLT1 %-inhibition,[2],33.6% @ 0.3 μM
"OC[C@H]1O[C@@H](c2cc(Cc3ccc4c(c3)OCCO4)c(O)c3c2OCC3)[C@H](O)[C@@H](O)[C@@H]1F [Compound 98, (2S,3R,4R,5S,6R)-2-[5-(2,3-dihydro-1,4-benzodioxin-6-ylmethyl)-4-hydroxy-2,3-dihydrobenzofuran-7-yl]-5-fluoro-6-(hydroxymethyl)tetrahydropyran-3,4-diol]",inhibition at 0.3 µM,[1],26%
same,inhibition at 0.3 µM,[2],30.9%
